Results published in patent publication US10544095B2 (Pfizer Inc., priority 2015, dated 2020).

Target: hTDO2 in human glioblastoma A172 cells (Homo sapiens (Human), UniProt P48775)
Assay: Cellular assay for TDO2 activity determination in A172 cells
Format: cell-based
Conditions: overnight incubation, kynurenine absorbance at 480 nm
Description: The compounds of formula I inhibit the activity of human TDO2 in cells that constitutively express TDO2, such as A172 cells. A172 is a cell line derived from human brain glioblastoma cells. The cells are available from the American Type Culture Collection (ATCC®) as CRL-1620™.
The assay (adapted from Pilotte L et al., Proc Natl Acad Sci USA, 2012, 109(7), 2497-502) was performed in 96-well flat bottom plates seeded with human glioblastoma A172 cells, naturally expressing hTDO2 (prepared as described in Tilman et al., Mol Cancer, 2007, 17(6), 80), at a concentration of 1.25×10^4 cells/well in a final volume of 200 μL. To determine TDO, the cells were incubated overnight at 37° C. at 5% CO2 in IMDM (Invitrogen) supplemented with 2% FBS and 2% penicillin/streptomycin in the presence of the compounds of the present invention, at different concentrations.
The plates were then centrifuged 5 min at 1000 rpm, and 100 μL of the supernatant were collected in a conical plate, 30 μL of TCA 30% were added and a further centrifuged at 3000×g for 10 minutes. 100 μL of the supernatant were collected in a flat bottomed plate and 100 μL of 2% (w/v) 4-(dimethylamino)-benzaldehyde in acetic acid and incubated for 5 min at room temperature. Kynurenine concentrations were determined by measuring the absorbance at 480 nm. A standard curve was made with pure kynurenine. The TDO activity was measured as described above using ten serial concentrations of the compounds of the present invention. Data were fitted using the Prism™ software (GraphPad Software, Inc.) using standard parameters.

Chain of hTDO2 in human glioblastoma A172 cells (P48775 whole entry): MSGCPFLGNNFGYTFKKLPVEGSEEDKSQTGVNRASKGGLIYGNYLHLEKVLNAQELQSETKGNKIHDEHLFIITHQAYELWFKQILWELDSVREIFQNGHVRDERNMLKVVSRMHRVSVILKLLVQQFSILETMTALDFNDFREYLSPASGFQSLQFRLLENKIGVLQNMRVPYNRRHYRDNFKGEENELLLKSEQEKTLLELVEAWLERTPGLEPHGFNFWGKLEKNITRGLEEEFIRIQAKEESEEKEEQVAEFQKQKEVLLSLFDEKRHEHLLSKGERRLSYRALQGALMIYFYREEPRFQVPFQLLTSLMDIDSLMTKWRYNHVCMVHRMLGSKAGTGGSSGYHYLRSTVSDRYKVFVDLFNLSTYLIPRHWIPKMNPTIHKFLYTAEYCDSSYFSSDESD

SMILES | IC50 [nM]
NCCNS(=O)(=O)c1ccc(F)c(-c2c[nH]c3cc(F)ccc23)c1 [Example 62, N-(2-aminoethyl)-4-fluoro-3-(6-fluoro-1H-indol-3-yl)benzene-sulfonamide] | 3500
O=S(=O)(c1ccc(-c2c[nH]c3cc(F)ccc23)cc1)N1CCOC[C@@H]1CO [Example 112, (S)-(4-((4-(6-fluoro-1H-indol-3-yl)phenyl)sulfonyl)morpholin-3-yl)methanol] | 116
NCc1cc(-c2c[nH]c3cc(F)ccc23)ccc1S(N)(=O)=O [Example 177, 2-(aminomethyl)-4-(6-fluoro-1H-indol-3-yl)benzenesulfonamide] | 700
CNCCc1cc(-c2c[nH]c3cc(F)ccc23)ccc1S(N)(=O)=O [Example 140, 4-(6-fluoro-1H-indol-3-yl)-2-(2-(methylamino)ethyl)-benzenesulfonamide] | 541
O=C1CN(S(=O)(=O)c2ccc(-c3c[nH]c4cc(F)ccc34)cc2)CCN1CCO [Example 151, 4-((4-(6-fluoro-1H-indol-3-yl)phenyl)sulfonyl)-1-(2-hydroxyethyl)piperazin-2-one] | 439
O=S(=O)(c1ccc(-c2c[nH]c3cc(F)ccc23)cc1)N1C[C@@H](F)C[C@@H]1CO [Example 126, ((2R,4S)-4-fluoro-1-((4-(6-fluoro-1H-indol-3-yl)phenyl)sulfonyl)pyrrolidin-2-yl)methanol] | 145
NCCNS(=O)(=O)c1cc(-c2c[nH]c3cc(F)ccc23)ccc1F [Example 43, N-(2-aminoethyl)-2-fluoro-5-(6-fluoro-1H-indol-3-yl)-benzenesulfonamide] | 410
CC(C)c1cc(-c2c[nH]c3cc(F)ccc23)ccc1S(=O)(=O)NCCC(N)=O [Example 163, 3-((4-(6-fluoro-1H-indol-3-yl)-2-isopropylphenyl)-sulfonamido) propanamide] | 2220
CN(C)CCN1CCN(S(=O)(=O)c2ccc(-c3c[nH]c4cc(F)ccc34)cc2)CC1=O [Example 149, 1-(2-(dimethylamino)ethyl)-4-((4-(6-fluoro-1H-indol-3-yl)phenyl)sulfonyl)piperazin-2-one] | 443
O=S(=O)(c1ccc(-c2c[nH]c3cc(F)ccc23)cc1)N1C[C@@H](F)C[C@H]1CO [Example 123, ((2S,4S)-4-fluoro-1-((4-(6-fluoro-1H-indol-3-yl)phenyl)sulfonyl)pyrrolidin-2-yl)methanol] | 138
O=C(CCNS(=O)(=O)c1ccc(-c2c[nH]c3cc(F)ccc23)cc1)N1C[C@H](O)[C@@H](O)C1 [Example 171, (−)-N-(3-((3S,4S)-3,4-dihydroxypyrrolidin-1-yl)-3-oxopropyl)-4-(6-fluoro-1H-indol-3-yl)benzenesulfonamide] | 1740
NS(=O)(=O)c1ccc(-c2c[nH]c3cc(F)ccc23)c(Cl)c1 [Example 136, 3-chloro-4-(6-fluoro-1H-indol-3-yl) benzenesulfonamide] | 271
C[C@H]1CN(S(=O)(=O)c2ccc(-c3c[nH]c4cc(F)ccc34)cc2)C[C@H](C)N1 [Example 15, 3-(4-(((3S,5S)-3,5-dimethylpiperazin-1-yl)sulfonyl)phenyl)-6-fluoro-1H-indole] | 220
C[C@@H](O)[C@H](C)N(CCO)S(=O)(=O)c1ccc(-c2c[nH]c3cc(F)ccc23)cc1 [Example 111, 4-(6-fluoro-1H-indol-3-yl)-N-((2S,3R)-3-hydroxybutan-2-yl)-N-(2-hydroxyethyl)benzene sulfonamide] | 146
NS(=O)(=O)c1ccc(-c2c[nH]c3cc(F)ccc23)cc1CCO [Example 139, 4-(6-fluoro-1H-indol-3-yl)-2-(2-hydroxyethyl)-benzenesulfonamide] | 120
O=S(=O)(c1ccc(-c2c[nH]c3cc(F)ccc23)cc1)N1CCN[C@@H](CO)C1 [Example 17, (R)-(4-((4-(6-fluoro-1H-indol-3-yl)phenyl)sulfonyl)piperazin-2-yl)methanol] | 200
CNC(=O)n1cc(-c2ccc(S(=O)(=O)N3CCNCC3)cc2)c2ccc(F)cc21 [Example 60, 6-fluoro-N-methyl-3-(4-(piperazin-1-ylsulfonyl)phenyl)-1H-indole-1-carboxamide] | 9100
O=C(NCCNS(=O)(=O)c1ccc(-c2c[nH]c3cc(F)ccc23)cc1)N1CCNCC1 [Example 109, N-(2-(4-(6-fluoro-1H-indol-3-yl)phenylsulfonamido)ethyl) piperazine-1-carboxamide] | 1000
CN1CCN(S(=O)(=O)c2ccc(-c3c[nH]c4cc(F)ccc34)cc2)CC1=O [Example 42, 4-((4-(6-fluoro-1H-indol-3-yl)phenyl)sulfonyl)-1-methylpiperazin-2-one] | 260

Results, then the molecule that gave them:

IC50 [nM] | SMILES
511 | O=C(CCNS(=O)(=O)c1ccc(-c2c[nH]c3cc(F)ccc23)cc1)N1C[C@@H](O)[C@@H](O)C1 [Example 169, N-(3-((cis)-3,4-dihydroxypyrrolidin-1-yl)-3-oxopropyl)-4-(6-fluoro-1H-indol-3-yl)benzenesulfonamide]
250 | CN(CCCC(N)=O)S(=O)(=O)c1ccc(-c2c[nH]c3cc(F)ccc23)cc1 [Example 54, 4-(4-(6-fluoro-1H-indol-3-yl)-N-methylphenylsulfonamido)-butanamide]
230 | O=S(=O)(c1ccc(-c2c[nH]c3cc(F)ccc23)cc1Cl)N1CCNCC1 [Example 45, 3-(3-chloro-4-(piperazin-1-ylsulfonyl)phenyl)-6-fluoro-1H-indole]
109 | O=S(=O)(c1ccc(-c2c[nH]c3cc(F)ccc23)cc1)N(CCO)CCCO [Example 117, 4-(6-fluoro-1H-indol-3-yl)-N-(2-hydroxyethyl)-N-(3-hydroxypropyl)benzenesulfonamide]
93 | C[C@@H](CO)NS(=O)(=O)c1ccc(-c2c[nH]c3cc(F)ccc23)cc1 [Example 101, (−)-(6-fluoro-1H-indol-3-yl)-N-[(2S)-1-hydroxypropan-2-yl]benzenesulfonamide]
93500 | O=S(=O)(c1ccc(-c2c[nH]c3cc(F)ccc23)cc1)N1CCC(O)C1 (stereo not drawn) [Example 124, 1-((4-(6-fluoro-1H-indol-3-yl)phenyl)sulfonyl) pyrrolidin-3-ol]
186 | Cc1noc(CNS(=O)(=O)c2ccc(-c3c[nH]c4cc(F)ccc34)cc2)n1 [Example 155, 4-(6-fluoro-1H-indol-3-yl)-N-((3-methyl-1,2,4-oxadiazol-5-yl)methyl) benzenesulfonamide]
320 | C[C@@H]1CN(S(=O)(=O)c2ccc(-c3c[nH]c4cc(F)ccc34)cc2)C[C@H](C)N1 [Example 11, 3-(4-(((cis)-3,5-dimethylpiperazin-1-yl)sulfonyl)phenyl)-6-fluoro-1H-indole]
630 | CCC(=O)n1cc(-c2ccc(S(=O)(=O)N3CCNCC3)cc2)c2ccc(F)cc21 [Example 51, 1-(6-fluoro-3-(4-(piperazin-1-ylsulfonyl)phenyl)-1H-indol-1-yl)-propan-1-one]
270 | O=S(=O)(N[C@H]1CCOC1)c1ccc(-c2c[nH]c3cc(F)ccc23)cc1 [Example 64, (S)-4-(6-fluoro-1H-indol-3-yl)-N-(tetrahydrofuran-3-yl)-benzenesulfonamide]
86000 | Cc1nccn1CC1(O)CCCN(S(=O)(=O)c2ccc(-c3c[nH]c4cc(F)ccc34)cc2)C1 (stereo not drawn) [Example 122, 1-((4-(6-fluoro-1H-indol-3-yl)phenyl)sulfonyl)-3-((2-methyl-1H-imidazol-1-yl)methyl) piperidin-3-ol]
